The values below are quoted from earlier work in patent US11648211B2, “Nanoencapsulated combination drug formulations” (priority 2019, dated 2023).

The half-life is the time in which the quantity being followed falls by half.

The subject of data set [1] is SARS-2-S-driven entry into Caco-2 cells.
Data set [2] concerns SARS-2-S-driven entry into Vero-TMPRSS2 cells.
The conditions of data set [3]: in vivo, ip, 5 mg/kg.
The conditions of data set [4]: human, in vivo.
For data set [5] the following is noted: in vivo.
For another data set, the system named is advanced breast cancer. Conditions: in vivo.

SMILES strings stand for the structures. Where a name gives a salt, the structure may show the parent alone. Read-outs that look alike come from different tables or passages of the source.

On to `CN(C)C(=O)COC(=O)Cc1ccc(OC(=O)c2ccc(NC(=N)N)cc2)cc1` [Camostat mesylate], for which the SARS-2-S-driven entry entry in data set [1] and in data set [2] was “partially blocked” in each case.

As for `CCc1cnn2c(NCc3ccc[n+]([O-])c3)cc(N3CCCC[C@H]3CCO)nc12` [DCB, Dinaciclib], the half-life in data set [3] is 0.25 h. Moreover, in data set [4], the half-life is 3.3 h, the patients with neutropenia is reported as 43% and the patients with thrombocytopenia was 3%. Also, the “patients with grade 3-4 toxicities” value in data set [5] is recorded as 60%. In the data set with advanced breast cancer, the “grade 3-4 febrile neutropenia” value is 11%, the “grade 3-4 increased transaminase levels” value is given as 11%, the “grade 3-4 leukopenia” value was 21% and the “grade 3-4 neutropenia” value is listed as 47%.

On to `Cn1ncnc1[C@H]1c2n[nH]c(=O)c3cc(F)cc(c23)N[C@@H]1c1ccc(F)cc1` [TLZ, Talazoparib], for which, for the setting “oral”, the “patients with anemia, low RBC count” value is 52%; the “patients with leukopenia, low WBC count” value is on record as 17%; the “patients with thrombocytopenia, low PLT count” value is listed as 27%. Further, the patients with neutropenia (patients treated with TLZ) is recorded as 35%.
